Assays:
Format in all cases: biochemical
JAK1 = JAK1 (Homo sapiens, UniProt P23458); assay: JAK kinase inhibition assay (EZ Reader, peptide substrate phosphorylation) - JAK1; conditions: JAK1 kinase 20 nM; 8 concentration points, max 10 μM
Outline: (§1)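 Microfluidic mobility-shift detection of fluorescent peptide substrate phosphorylation, with JAK1 at 20 nM and JAK2, JAK3 and Tyk2 each at 1 nM final, in 20 mM HEPES pH 7.4, 10 mM MgCl2, 1 mM DTT. Reactions run at room temperature to 20–30% conversion, then EDTA-stopped. Compounds tested at 8 three-fold dilutions from 10 μM top final; IC50 from conversion curves.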

JAK3 = target: T1, JAK3 (Homo sapiens, UniProt P52333); assay: JAK kinase inhibition assay (EZ Reader, peptide substrate phosphorylation) - JAK3; conditions: JAK3 kinase 1 nM; 8 concentration points, max 10 μM
T1 sequence (P52333 1-1124): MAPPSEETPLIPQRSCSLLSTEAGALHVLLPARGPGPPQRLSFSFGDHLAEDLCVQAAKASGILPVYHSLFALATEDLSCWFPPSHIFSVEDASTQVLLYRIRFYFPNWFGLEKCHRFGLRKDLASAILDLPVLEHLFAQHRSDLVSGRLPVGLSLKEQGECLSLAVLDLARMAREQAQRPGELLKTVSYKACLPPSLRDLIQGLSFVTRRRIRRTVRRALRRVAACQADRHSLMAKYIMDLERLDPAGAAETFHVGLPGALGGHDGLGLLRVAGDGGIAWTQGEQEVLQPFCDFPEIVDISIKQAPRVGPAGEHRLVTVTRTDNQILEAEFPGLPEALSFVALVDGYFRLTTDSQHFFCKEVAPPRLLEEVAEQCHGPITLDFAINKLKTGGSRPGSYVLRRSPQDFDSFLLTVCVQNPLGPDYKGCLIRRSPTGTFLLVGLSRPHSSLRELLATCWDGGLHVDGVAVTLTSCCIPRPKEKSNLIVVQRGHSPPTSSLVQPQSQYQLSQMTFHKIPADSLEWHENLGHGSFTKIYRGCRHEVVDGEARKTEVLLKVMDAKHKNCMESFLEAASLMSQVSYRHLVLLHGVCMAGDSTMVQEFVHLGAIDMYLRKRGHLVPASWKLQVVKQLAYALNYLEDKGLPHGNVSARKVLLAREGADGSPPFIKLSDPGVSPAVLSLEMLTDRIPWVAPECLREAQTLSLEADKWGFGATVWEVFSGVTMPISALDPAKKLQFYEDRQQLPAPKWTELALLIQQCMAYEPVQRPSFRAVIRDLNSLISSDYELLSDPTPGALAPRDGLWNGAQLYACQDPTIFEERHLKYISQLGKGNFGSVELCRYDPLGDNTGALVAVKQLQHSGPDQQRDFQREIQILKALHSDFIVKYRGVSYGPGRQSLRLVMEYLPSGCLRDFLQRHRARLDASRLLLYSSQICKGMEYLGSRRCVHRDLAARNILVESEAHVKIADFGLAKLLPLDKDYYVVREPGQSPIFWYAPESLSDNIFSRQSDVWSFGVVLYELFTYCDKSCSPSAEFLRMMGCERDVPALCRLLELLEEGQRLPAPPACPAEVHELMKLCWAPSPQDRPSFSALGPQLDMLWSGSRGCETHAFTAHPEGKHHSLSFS
Excerpt: (§2) Assay for Identifying Inhibitory Effects of Compounds on JAK Kinases
(§3) Janus kinases (JAK), including JAK1, JAK2, JAK3 and Tyk2, transduce a cytokine-mediated signal through a JAK-STAT pathway. The kinases are 120-140 kDa in size and have 7 determined homology regions: JH1 to JH7. JH1 is an important region for enzymatic activity and has typical characteristics of tyrosine kinases. Phosphorylation of tyrosine leads to a change in the conformation of JAK protein, thereby promoting binding of substrate. The JAK-STAT system includes three main parts: receptors penetrating a cell membrane, Janus kinases binding to the receptors, and signal transducers and activators of transcription (STAT) for transmitting signals to a nucleus and DNA. When cytokines bind to receptors, JAK phosphorylates the receptors and attracts STAT proteins. The STAT proteins are also phosphorylated and combined with one another to form dimers. The dimers enter the nucleus and bind to DNA, thereby leading to gene transcription.
(§4) EZ Reader from PerkinElmer can be used to detect the phosphorylation of polypeptide substrates catalyzed by kinases. The device is based on microfluidic techniques, and can directly detect fluorescently labeled substrates and products. The separation step is achieved by controlling the pressure and electric field strength in the microfluidic chip. In kinase assays, a product conversion ratio is usually controlled to be 20-30%. A biological test is used to identify inhibitory effects of compounds on JAKs.
(§5) Compound powder was dissolved in DMSO, sealed and stored in a freezer under −20° C. The in-house compound Ref1 was used as a positive control for JAK1, JAK2 and Tyk2 tests, and Ref2 was used as a positive control for JAK3 tests.
(§6) S2.8. Assay buffer: 20 mM HEPES buffer, pH 7.4, 10 mM magnesium chloride, 0.01% bovine serum albumin BSA, 0.0005% Tween-20 and 1 mM dithiothreitol solution.
(§7) S2.9. Stop buffer: 180 mM HEPES buffer, 20 mM ethylenediaminetetraacetic acid and 0.2% coating reagent 3.
(§8) S2.10. Separation buffer: 100 mM HEPES buffer, 10 mM ethylenediaminetetraacetic acid, 0.0005% Tween 20, 0.1% coating reagent 3 and 1% dimethyl sulfoxide.
The compound was dissolved in dimethyl sulfoxide and diluted to 10 mM concentration, a certain volume of solution was taken and diluted to 0.6 mM concentration, 10 μL of the 0.6 mM dilution was added to a 384-well microplate, and then was diluted 3-fold with a total of 8 concentration points. […]
Positive control (HPE1): Ref2, final concentration: 10 μM
(§9) Negative control (ZPE): DMSO, final content: 1.6%
(§10) Compounds: maximum final concentration: 10 μM; 3-fold dilution, 8 concentration points and 2 duplicates.
(§11) S4.1. 250 nL of the compound was added to each well of the assay microplate by using ECHO, and centrifuged at 1000 rpm for 1 minute.
(§12) S4.2. 5 μL of the assay buffer was added and agitated for a few seconds to fully dissolve the compound.
(§13) S4.3. 5 μL of 3× substrate solution and 5 μL of 3× kinase solution were added and centrifuged at 800 rpm for 1 minute.
(§14) S4.4. Final concentrations of JAK1, JAK2, JAK3 and Tyk2 kinases in the reaction system were 20 nM, 1 nM, 1 nM and 1 nM respectively.
(§15) S4.5. Incubation at room temperature, where kinases had time differences, and different batches of kinases had time differences.
(§16) S4.6. When 20%-30% of the reaction completed, 15 μL of stop buffer was added to stop the reaction, and centrifuged at 1000 rpm for 2 minutes.
(§17) S4.7. The microplates were placed on EZ Reader for reading.
(§18) S4.8. Readings on EZ Reader were calculated by using a peak height, where product conversion ratio (%)=product/(product+substrate)*100.
(§19) 5. Data Processing: IC50 calculation
(§20) A graphing software Xlfit was used to form a concentration curve of the test compound, and an IC50 value was calculated.
(§21) “A” means “≥10 μM”; “B” means “≥1 μM and <10 μM”; “C” means “≥0.1 μM and <1 μM”; and “D” means “<0.1 μM”.

JAK2 = JAK2 (Homo sapiens, UniProt O60674); assay: JAK kinase inhibition assay (EZ Reader, peptide substrate phosphorylation) - JAK2; conditions: JAK2 kinase 1 nM; 8 concentration points, max 10 μM
Sequence of JAK2 (O60674 whole entry): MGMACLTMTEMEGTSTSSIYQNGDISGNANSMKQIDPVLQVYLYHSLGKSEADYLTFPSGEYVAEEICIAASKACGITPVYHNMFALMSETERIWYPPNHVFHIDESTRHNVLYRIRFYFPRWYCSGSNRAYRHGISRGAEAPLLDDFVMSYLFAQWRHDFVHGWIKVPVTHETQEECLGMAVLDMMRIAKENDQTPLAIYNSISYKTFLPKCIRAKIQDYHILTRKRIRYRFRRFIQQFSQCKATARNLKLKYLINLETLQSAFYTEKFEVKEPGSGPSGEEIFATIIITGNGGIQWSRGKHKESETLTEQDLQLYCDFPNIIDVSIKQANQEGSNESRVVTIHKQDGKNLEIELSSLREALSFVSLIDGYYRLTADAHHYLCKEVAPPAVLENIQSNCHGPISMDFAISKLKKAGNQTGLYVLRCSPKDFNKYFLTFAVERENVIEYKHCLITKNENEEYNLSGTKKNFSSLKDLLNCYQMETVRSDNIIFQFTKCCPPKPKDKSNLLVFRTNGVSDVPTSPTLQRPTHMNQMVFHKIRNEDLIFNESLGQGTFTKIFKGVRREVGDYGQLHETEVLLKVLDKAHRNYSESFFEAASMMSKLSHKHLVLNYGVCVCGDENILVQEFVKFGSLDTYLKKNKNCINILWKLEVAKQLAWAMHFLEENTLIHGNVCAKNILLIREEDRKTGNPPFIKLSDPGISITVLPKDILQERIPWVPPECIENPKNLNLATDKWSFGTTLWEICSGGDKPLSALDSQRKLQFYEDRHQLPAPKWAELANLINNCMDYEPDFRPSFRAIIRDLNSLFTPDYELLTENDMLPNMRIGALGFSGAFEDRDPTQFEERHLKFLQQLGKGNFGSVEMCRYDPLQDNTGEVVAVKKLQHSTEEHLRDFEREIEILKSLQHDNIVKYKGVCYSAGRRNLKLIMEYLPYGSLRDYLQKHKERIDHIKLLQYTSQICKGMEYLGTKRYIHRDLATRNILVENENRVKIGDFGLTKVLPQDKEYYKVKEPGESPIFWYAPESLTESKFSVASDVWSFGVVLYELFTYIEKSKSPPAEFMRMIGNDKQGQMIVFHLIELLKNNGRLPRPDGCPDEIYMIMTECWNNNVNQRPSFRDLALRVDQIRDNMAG
Excerpt: as §2, §3, §4, §5, §6, §7, §8
The compound was dissolved in dimethyl sulfoxide and diluted to 10 mM concentration, a certain volume of solution was taken and diluted to 0.6 mM concentration, 10 μL of the 0.6 mM dilution was added to a 384-well microplate, and then was diluted 3-fold with a total of 8 concentration points.
Positive control (HPE1): Ref1, final concentration: 10 μM […]
as §9, §10, §11, §12, §13, §14, §15, §16, §17, §18, §19, §20, §21

Tyk2 = Tyk2 (Homo sapiens, UniProt P29597); assay: JAK kinase inhibition assay (EZ Reader, peptide substrate phosphorylation) - Tyk2; conditions: Tyk2 kinase 1 nM; 8 concentration points, max 10 μM
Sequence of Tyk2 (P29597 whole entry): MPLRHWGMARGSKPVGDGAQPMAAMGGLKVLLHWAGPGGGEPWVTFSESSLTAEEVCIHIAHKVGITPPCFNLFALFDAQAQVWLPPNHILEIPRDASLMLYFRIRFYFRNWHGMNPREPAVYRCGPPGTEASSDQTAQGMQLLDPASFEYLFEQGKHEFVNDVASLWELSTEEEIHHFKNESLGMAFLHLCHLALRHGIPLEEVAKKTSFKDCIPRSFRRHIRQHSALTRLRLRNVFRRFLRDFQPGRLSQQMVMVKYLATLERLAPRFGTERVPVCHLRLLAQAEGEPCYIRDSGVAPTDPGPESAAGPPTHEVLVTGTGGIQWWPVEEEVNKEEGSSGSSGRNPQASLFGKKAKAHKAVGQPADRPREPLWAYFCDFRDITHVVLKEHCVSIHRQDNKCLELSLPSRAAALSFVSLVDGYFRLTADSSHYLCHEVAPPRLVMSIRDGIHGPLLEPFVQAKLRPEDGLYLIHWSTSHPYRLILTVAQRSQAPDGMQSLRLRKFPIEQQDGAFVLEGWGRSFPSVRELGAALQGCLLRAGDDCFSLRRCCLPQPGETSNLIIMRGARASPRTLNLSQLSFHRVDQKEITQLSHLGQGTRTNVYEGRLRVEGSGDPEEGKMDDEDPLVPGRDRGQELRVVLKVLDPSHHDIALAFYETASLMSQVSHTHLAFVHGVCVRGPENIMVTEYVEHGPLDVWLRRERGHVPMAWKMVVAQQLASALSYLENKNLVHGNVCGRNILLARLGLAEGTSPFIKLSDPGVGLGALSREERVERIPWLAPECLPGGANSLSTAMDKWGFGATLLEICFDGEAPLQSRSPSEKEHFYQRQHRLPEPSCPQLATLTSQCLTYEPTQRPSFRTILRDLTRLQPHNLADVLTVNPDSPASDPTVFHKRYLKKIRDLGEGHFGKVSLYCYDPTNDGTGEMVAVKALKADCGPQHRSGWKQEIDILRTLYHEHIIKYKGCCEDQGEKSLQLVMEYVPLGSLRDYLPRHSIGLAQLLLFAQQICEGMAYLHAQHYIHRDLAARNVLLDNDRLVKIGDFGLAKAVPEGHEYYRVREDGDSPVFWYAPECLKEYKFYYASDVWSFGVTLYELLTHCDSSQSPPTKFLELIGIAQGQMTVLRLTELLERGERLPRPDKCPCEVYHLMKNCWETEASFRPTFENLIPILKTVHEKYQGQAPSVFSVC
Outline: as §1

Sequence of JAK1 (P23458 whole entry): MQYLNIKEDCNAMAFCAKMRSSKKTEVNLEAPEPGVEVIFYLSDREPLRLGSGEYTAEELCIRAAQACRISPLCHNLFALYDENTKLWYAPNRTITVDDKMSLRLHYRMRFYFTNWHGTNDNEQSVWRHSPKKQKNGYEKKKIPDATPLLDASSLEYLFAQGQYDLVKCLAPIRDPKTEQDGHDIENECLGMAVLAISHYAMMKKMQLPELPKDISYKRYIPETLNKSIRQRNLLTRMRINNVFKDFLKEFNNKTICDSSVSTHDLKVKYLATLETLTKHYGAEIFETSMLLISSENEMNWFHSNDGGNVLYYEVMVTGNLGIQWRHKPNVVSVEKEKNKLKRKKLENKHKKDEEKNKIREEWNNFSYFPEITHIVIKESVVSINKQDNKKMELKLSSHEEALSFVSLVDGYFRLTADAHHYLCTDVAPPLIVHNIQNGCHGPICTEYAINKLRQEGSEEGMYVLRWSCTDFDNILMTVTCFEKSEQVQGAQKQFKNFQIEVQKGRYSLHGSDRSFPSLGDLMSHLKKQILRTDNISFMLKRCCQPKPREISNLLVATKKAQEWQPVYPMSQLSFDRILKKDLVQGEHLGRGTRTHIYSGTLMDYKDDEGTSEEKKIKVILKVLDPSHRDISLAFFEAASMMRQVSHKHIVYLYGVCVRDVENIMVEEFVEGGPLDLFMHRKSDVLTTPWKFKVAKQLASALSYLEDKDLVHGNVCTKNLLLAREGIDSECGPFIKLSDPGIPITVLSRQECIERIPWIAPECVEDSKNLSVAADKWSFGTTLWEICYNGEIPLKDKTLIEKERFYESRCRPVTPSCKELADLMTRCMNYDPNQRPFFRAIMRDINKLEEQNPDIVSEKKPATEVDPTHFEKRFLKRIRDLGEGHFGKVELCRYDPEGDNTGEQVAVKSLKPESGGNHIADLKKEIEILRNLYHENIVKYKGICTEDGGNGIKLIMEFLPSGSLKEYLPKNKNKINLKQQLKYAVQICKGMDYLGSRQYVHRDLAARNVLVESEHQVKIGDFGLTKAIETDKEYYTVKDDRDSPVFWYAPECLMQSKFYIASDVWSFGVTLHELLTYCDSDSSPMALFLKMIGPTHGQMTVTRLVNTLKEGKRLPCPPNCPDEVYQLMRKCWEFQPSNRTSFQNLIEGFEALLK

Row | Compound | IC50 (JAK1) | IC50 (JAK3) | IC50 (JAK2) | IC50 (Tyk2)
1 | Cn1cc(Nc2nccc(-c3ccc(NC(=O)C4(F)CC4)nc3)n2)cn1 [TDM-180821, 1-fluoro-N-(5-(2-((1-methyl-1H-pyrazol-4-yl)amino)pyrimidin-4-yl)pyridin-2-yl)cyclopropane-1-carboxamide] | 0.1 to 1 µM | ≥ 10 µM | 0.1 to 1 µM | 0.1 to 1 µM
2 | Cn1cc(Nc2nccc(-c3ccc(NC(=O)CC(F)(F)F)nc3)n2)cn1 [TDM-180830, 3,3,3-trifluoro-N-(5-(2-((1-methyl-1H-pyrazol-4-yl)amino)pyrimidin-4-yl)pyridin-2-yl)propanamide] | < 0.1 µM | 0.1 to 1 µM | 0.1 to 1 µM | 0.1 to 1 µM
3 | Cn1cc(Nc2nccc(-c3ccc(C(=O)N4CCS(=O)(=O)CC4)cc3)n2)cn1 [TDM-180749] | 1 to 10 µM | ≥ 10 µM | 1 to 10 µM | 1 to 10 µM
4 | CCCCS(=O)(=O)Nc1ccc(-c2ccnc(Nc3cnn(C)c3)n2)cc1 [TDM-180832, N-(4-(2-((1-methyl-1H-pyrazol-4-yl)amino)pyrimidin-4-yl)phenyl)butane-1-sulfonamide] | 0.1 to 1 µM | 1 to 10 µM | 0.1 to 1 µM | 0.1 to 1 µM
5 | CCOCCS(=O)(=O)Nc1ccc(-c2ccnc(Nc3cnn(C)c3)n2)cc1 [TDM-180834, 2-ethoxyl-N-(4-(2-((1-methyl-1H-pyrazol-4-yl)amino)pyrimidin-4-yl)phenyl)ethyl-1-sulfonamide] | < 0.1 µM | 1 to 10 µM | < 0.1 µM | 0.1 to 1 µM
6 | Cn1cc(Nc2nccc(-c3ccc(NC(=O)C4CC4(F)F)cc3)n2)cn1 (stereo not shown) [TDM-180757, 2,2-difluoro-N-(4-(2-((1-methyl-1H-pyrazol-4-yl)amino)pyrimidin-4-yl)phenyl)cyclopropane-1-carboxamide] | < 0.1 µM | 0.1 to 1 µM | < 0.1 µM | < 0.1 µM
7 | CN1CCN(c2ccc(-c3ccnc(Nc4cnn(C)c4)n3)cc2)CC1 [TDM-180828] | 1 to 10 µM | ≥ 10 µM | 1 to 10 µM | 1 to 10 µM
8 | Cn1cc(Nc2nccc(-c3ccc(CNCC#N)cc3)n2)cn1 [TDM-180761, 2-((4-(2-((1-methyl-1H-pyrazol-4-yl)amino)pyrimidin-4-yl)benzyl)amino)acetonitrile] | 0.1 to 1 µM | ≥ 10 µM | 1 to 10 µM | 0.1 to 1 µM
9 | Cn1cc(Nc2nccc(-c3ccc(NS(=O)(=O)Cc4ccccc4)cc3)n2)cn1 [TDM-180820, N-(4-(2-((1-methyl-1H-pyrazol-4-yl)amino)pyrimidin-4-yl)phenyl)-1-phenylmethanesulfonamide] | < 0.1 µM | < 0.1 µM | < 0.1 µM | < 0.1 µM
10 | Cn1cc(Nc2nccc(-c3ccc(NC(=O)C4(C)CC4)cc3)n2)cn1 [TDM-180802, 1-methyl-N-(4-(2-((1-methyl-1H-pyrazol-4-yl)amino)pyrimidin-4-yl)phenyl)cyclopropane-1-carboxamide] | 0.1 to 1 µM | ≥ 10 µM | 0.1 to 1 µM | 0.1 to 1 µM
11 | Cn1cc(Nc2nccc(-c3ccc(NC(=O)C4(F)CC4)cc3)n2)cn1 [TDM-180803, 1-fluoro-N-(4-(2-((1-methyl-1H-pyrazol-4-yl)amino)pyrimidin-4-yl)phenyl)cyclopropane-1-carboxamide] | 0.1 to 1 µM | ≥ 10 µM | 0.1 to 1 µM | 0.1 to 1 µM
12 | Cn1cc(Nc2nccc(-c3ccc(NC(=O)C4CC4)cc3)n2)cn1 [TDM-180755, N-(4-(2-((1-methyl-1H-pyrazol-4-yl)amino)pyrimidin-4-yl)phenyl)cyclopropanecarboxamide] | < 0.1 µM | 1 to 10 µM | < 0.1 µM | < 0.1 µM
13 | Cn1cc(Nc2nccc(-c3ccc(NS(=O)(=O)C4CC4)cc3)n2)cn1 [TDM-180767, N-(4-(2-((1-methyl-1H-pyrazol-4-yl)amino)pyrimidin-4-yl)phenyl)cyclopropanesulfo] | 0.1 to 1 µM | 1 to 10 µM | 0.1 to 1 µM | 0.1 to 1 µM
14 | Cn1cc(Nc2nccc(-c3ccc(NC(=O)CC(F)(F)F)cc3)n2)cn1 [TDM-180754, 3,3,3-trifluoro-N-(4-(2-((1-methyl-1H-pyrazol-4-yl)amino)pyrimidin-4-yl)phenyl)propanamide] | < 0.1 µM | 1 to 10 µM | < 0.1 µM | 0.1 to 1 µM
15 | Cn1cc(Nc2nccc(-c3ccc(NS(=O)(=O)CCC(F)(F)F)cc3)n2)cn1 [TDM-180850, 3,3,3-trifluoro-N-(4-(2-((1-methyl-1H-pyrazol-4-yl)amino)pyrimidin-4-yl)phenyl)propyl-1-sulfonamide] | 0.1 to 1 µM | ≥ 10 µM | 0.1 to 1 µM | 0.1 to 1 µM
16 | COCCC(=O)Nc1ccc(-c2ccnc(Nc3cnn(C)c3)n2)cn1 [TDM-180814, 3-methoxy-N-(5-(2-((1-methyl-1H-pyrazol-4-yl)amino)pyrimidin-4-yl)pyridin-2-yl)propanamide] | 0.1 to 1 µM | 1 to 10 µM | 0.1 to 1 µM | 1 to 10 µM

From patent US20240174648A1, “Small Molecule Compound” (Technoderma Medicines Pte Ltd, priority 2019, published 2024)
